Molecular target: Mucolipin-3 (Homo sapiens) (UniProt Q8TDD5)
Assay: whole-cell currents from mucolipin-3 agonists – HEK293, whole-cell patch clamp, -80 mV, orthogonal assay, late-stage follow-up (AID 2694)
Details: HEK293 TRPML3, whole-cell patch clamp current; at 10 µM; hits give low values

Chain of Mucolipin-3 (Homo sapiens) (Q8TDD5 whole entry, looked up): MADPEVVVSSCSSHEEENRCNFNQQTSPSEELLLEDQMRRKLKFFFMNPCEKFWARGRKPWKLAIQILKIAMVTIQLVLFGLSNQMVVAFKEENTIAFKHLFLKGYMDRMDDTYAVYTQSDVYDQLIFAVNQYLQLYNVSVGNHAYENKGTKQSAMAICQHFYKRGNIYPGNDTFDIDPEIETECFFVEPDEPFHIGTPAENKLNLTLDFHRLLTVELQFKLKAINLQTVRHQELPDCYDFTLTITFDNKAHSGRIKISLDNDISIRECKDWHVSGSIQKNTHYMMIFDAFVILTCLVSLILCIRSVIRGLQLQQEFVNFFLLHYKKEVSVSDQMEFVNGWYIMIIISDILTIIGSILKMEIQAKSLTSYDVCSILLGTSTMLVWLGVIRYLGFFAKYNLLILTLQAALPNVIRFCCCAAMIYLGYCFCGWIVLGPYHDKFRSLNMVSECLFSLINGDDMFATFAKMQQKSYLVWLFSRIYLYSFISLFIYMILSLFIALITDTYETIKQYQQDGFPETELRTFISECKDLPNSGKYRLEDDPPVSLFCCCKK

current density at -80 mV [nA/pF]	Structure (SMILES)
-0.14	Cc1ccc(S(=O)(=O)n2nccc2-c2c(-c3ccc(Cl)cc3)noc2C)cc1
-0.19	CCOc1ccc(S(=O)(=O)N2CCCCCC2)c2ccccc12
-0.02	CC1CCN(S(=O)(=O)c2ccc(C(C)C)cc2)CC1

Source: PubChem BioAssay AID2694 (The Scripps Research Institute Molecular Screening Center, 2010)
